Measured values: article PMC2497451 (Anesthesia and analgesia, 2008)

Biological target: T1, adult human muscle nicotinic acetylcholine receptor (nAChR, α2βεδ) (Homo sapiens, UniProt P02708+Q04844+Q07001)
Assay: cell-based
Conditions: not given

T1 sequence (P02708 21-457): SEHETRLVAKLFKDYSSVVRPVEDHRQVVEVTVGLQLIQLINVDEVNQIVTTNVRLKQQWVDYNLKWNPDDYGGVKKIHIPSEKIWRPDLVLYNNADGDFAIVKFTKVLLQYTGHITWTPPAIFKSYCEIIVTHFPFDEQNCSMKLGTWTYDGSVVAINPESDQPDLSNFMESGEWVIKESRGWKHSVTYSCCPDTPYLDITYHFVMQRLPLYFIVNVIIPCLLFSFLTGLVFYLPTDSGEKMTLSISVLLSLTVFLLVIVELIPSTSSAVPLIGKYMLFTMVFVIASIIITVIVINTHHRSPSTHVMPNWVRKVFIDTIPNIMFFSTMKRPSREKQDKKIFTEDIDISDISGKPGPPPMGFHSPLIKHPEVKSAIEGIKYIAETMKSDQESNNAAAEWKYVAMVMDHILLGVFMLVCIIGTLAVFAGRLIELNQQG
T1 sequence (Q04844 21-493): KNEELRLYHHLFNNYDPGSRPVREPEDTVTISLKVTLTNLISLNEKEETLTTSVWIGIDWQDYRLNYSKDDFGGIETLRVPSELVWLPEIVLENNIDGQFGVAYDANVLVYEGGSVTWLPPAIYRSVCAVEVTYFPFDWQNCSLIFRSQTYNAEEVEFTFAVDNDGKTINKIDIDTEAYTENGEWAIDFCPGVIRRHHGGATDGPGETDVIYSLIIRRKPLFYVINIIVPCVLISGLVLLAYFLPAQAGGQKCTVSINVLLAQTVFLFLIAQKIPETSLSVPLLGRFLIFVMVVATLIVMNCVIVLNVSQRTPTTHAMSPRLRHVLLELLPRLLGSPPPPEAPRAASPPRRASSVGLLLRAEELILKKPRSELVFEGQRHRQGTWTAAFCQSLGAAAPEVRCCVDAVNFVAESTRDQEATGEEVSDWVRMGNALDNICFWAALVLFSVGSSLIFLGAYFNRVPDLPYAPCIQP
T1 sequence (Q07001 22-517): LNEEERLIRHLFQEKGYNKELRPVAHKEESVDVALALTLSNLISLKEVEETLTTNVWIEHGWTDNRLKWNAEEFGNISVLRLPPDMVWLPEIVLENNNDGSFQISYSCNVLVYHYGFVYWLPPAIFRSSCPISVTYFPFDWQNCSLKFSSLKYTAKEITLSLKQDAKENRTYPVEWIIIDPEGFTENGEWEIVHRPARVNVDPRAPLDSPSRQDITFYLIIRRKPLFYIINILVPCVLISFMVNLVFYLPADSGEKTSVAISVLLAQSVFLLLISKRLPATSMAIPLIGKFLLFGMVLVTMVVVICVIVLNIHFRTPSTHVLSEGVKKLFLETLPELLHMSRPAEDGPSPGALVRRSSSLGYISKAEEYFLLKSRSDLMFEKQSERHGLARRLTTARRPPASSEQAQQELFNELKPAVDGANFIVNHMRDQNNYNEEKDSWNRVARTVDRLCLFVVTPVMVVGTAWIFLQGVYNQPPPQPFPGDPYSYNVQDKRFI
T1 sequence (P11230 24-501 partner): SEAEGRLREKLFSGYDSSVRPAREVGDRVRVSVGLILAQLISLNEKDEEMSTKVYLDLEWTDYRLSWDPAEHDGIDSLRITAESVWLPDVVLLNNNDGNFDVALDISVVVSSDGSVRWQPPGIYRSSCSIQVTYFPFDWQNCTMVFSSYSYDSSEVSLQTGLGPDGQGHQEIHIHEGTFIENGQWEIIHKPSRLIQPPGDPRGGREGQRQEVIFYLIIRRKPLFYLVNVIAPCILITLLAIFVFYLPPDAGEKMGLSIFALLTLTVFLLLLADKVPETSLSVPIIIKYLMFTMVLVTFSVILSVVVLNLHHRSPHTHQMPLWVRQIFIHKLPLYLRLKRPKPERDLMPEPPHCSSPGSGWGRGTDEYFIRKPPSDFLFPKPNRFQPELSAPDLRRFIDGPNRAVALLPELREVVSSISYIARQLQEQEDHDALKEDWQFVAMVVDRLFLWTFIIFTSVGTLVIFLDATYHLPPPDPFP

First: CC(=O)O[C@H]1C[C@@H]2CC[C@@H]3[C@H](CC[C@@]4(C)[C@H]3C[C@H]([N+]3(C)CCCCC3)[C@@H]4OC(C)=O)[C@@]2(C)C[C@@H]1[N+]1(C)CCCCC1 [pancuronium]
Second: COc1ccc(C[C@@H]2c3cc(OC)c(OC)cc3CC[N@+]2(C)CCC(=O)OCCCCCOC(=O)CC[N@@+]2(C)CCc3cc(OC)c(OC)cc3[C@H]2Cc2ccc(OC)c(OC)c2)cc1OC [cisatracurium]
The IC50 of the first is 1.6-fold lower: 6.3 ± 0.8 nM for the first, 10 ± 1 nM for the second.

`COc1cc2c3cc1Oc1cc(ccc1O)C[C@@H]1c4c(cc(OC)c(O)c4Oc4ccc(cc4)C[C@@H]3N(C)CC2)CC[N+]1(C)C` [(+)-tubocurarine] showed an IC50 of 24 ± 2 nM.

Biological target: T1, adult human muscle nicotinic acetylcholine receptor (nAChR, α2βεδ)
Assay: not given
Conditions: 300 μM ACh, -50 mV, pH 7.3, room temperature; competitive

`C=CC[N+]1([C@H]2C[C@H]3[C@@H]4CC[C@H]5C[C@H](O)[C@@H](N6CCOCC6)C[C@]5(C)[C@H]4CC[C@]3(C)[C@H]2OC(C)=O)CCCC1` [rocuronium] and `CC(=O)O[C@H]1C[C@@H]2CC[C@@H]3[C@H](CC[C@@]4(C)[C@H]3C[C@H]([N+]3(C)CCCCC3)[C@@H]4OC(C)=O)[C@@]2(C)C[C@@H]1N1CCCCC1` [vecuronium] are within error of each other in IC50: 17 ± 2 nM for the first, 15 ± 2 nM for the second.

`COc1ccc(CC2c3cc(OC)c(OC)cc3CC[N+]2(C)CCC(=O)OCCCCCOC(=O)CC[N+]2(C)CCc3cc(OC)c(OC)cc3C2Cc2ccc(OC)c(OC)c2)cc1OC` (stereo not shown) [atracurium] and `COc1ccc2cc1Oc1cc3c(cc1OC)CC[N+](C)(C)[C@H]3Cc1ccc(cc1)Oc1c(OC)c(OC)cc3c1[C@@H](C2)[N+](C)(C)CC3` [metocurine] are within error of each other in IC50: 17 ± 2 nM for the first, 18 ± 2 nM for the second.
